Results from patent US11311512B2, “Lymph directing prodrugs” (priority 2014, dated 2022).

How the values were obtained:
[1] = Pharmacokinetic study in greyhound dogs, testosterone plasma concentrations after oral administration; assay type: in vivo; conditions: fed state
Procedure: For the dog studies, female greyhound dogs were held in a large animal research facility for at least 5 days prior to the commencement of studies. The dogs were allowed to acclimatise for at least 4 days prior to commencing the study. The dogs were fasted for 12 h up to 30 min prior to drug administration. For the fed state studies (n=4 for TU or Compound 13), dogs received 680 g of standard commercial dog food containing 5% fat min prior to drug administration. In the fasted study (n=1 for Compound 13), the dog remained fasted until after 4 h post-dose. Water was available ad libitum throughout the study for all dogs. On the study day, a 20 gauge intravenous catheter was inserted into a cephalic vein to allow blood sampling. The dogs were free to move around (not restrained) after cannulation. For the fed state studies, Andriol Testocaps (the commercial TU product) or Compound 13 was given to the dogs. Andriol Testocaps were supplied by Merck Sharp & Dohme (Australia) Pty Limited and were formulated as soft gelatin capsule containing a 12.0% (w/w) solution of TU in lauroglycol FCC/castor oil [40:60% (w/w)] with the individual capsule composition being 40 mg of TU, lauroglycol FCC, castor oil, gelatin, glycerol, and sunset yellow (E110). Compound 13 was prepared in a long-chain lipid based self-emulsifying drug delivery system (SEDDS) that consisted of 30.5% w/w soybean oil, 30.5% w/w Maisine 35-1, 31.6% w/w Cremophor EL and 7.4% w/w ethanol. Formulations were filled into hard gelatin capsules. Two capsules of Andriol Testocaps containing 80 mg TU or two capsules of Compound 13 containing a total dose of 90 mg Compound 13 dissolved in 2 g of the SEDDS formulation were administrated to the fed greyhound dog by placing the capsules as far posterior to the pharynx as possible, closing the mouth and rubbing the throat to stimulate swallowing. Subsequently 50 mL of water was administered orally via a syringe. Two capsules of Compound 13 formulation were also administrated to the fasted dogs for fasted state studies. After oral administration, blood samples (approx. 3 mL each) were taken via the cephalic vein cannula from 5 min prior to administration up to 10 hours post-dosing. The patency of the catheters was maintained by flushing with a small volume of heparinised saline (1-2 IU/mL) after each blood sample was withdrawn. Blood samples at 24 h were taken by venepuncture. Plasma was separated by centrifugation and aliquots of each plasma sample were transferred into eppendorf tubes and store at −80° C. prior to analysis by LC-MS-MS.

[2] = cited from earlier work
[3] = Pharmacokinetic study in rats, testosterone plasma concentrations after oral gavage; conditions: testosterone in plasma, oral gavage
[4] = conscious carotid artery cannulated SD female rats, normalized to 2 mg/kg equivalent testosterone dose

For `CCCCCCCCCCC(=O)O[C@H]1CC[C@H]2[C@@H]3CCC4=CC(=O)CC[C@]4(C)[C@H]3CC[C@]12C` [TU, testosterone undecanoate, reference compound], the “AUC0-24 h fold increase compared with TU group” value ([1]; greyhound dogs, dose-normalized) was 1 fold, the Cmax ([1]; oral capsules, conscious greyhound dogs, normalized to 2 mg/kg equivalent testosterone dose, TU as Andriol Testocaps, Compound 13 in SEDDS) was 75.4 ± 12.8 nM and the Tmax ([1]; oral capsules, greyhound dogs) was 1.8 ± 0.1 h. The AUC0-24 h ([1]; oral capsules, greyhound dogs, normalized to 2 mg/kg equivalent testosterone dose) was 0.1411 ± 0.0221 µM·h, the “bioavailability of testosterone after oral administration of the undecanoate ester” value [2] was < 5% and the “Transport of total TST derivatives in lymph (% of dose)” value (anaesthetised, mesenteric lymph-duct cannulated female SD rats, intraduodenal infusion 0-2 h, cumulative over 8 h) was 1.9 ± 0.3 % of dose. The “Fold increase (compared with control group dosed with TU)” value (lymphatic transport of total TST derivatives, female SD rats, intraduodenal infusion) was 1.0 fold, the “AUC0-24 h fold increase compared with TU group” value ([3]; SD female rats, dose-normalized) was 1.0 fold and the Tmax ([3]; conscious carotid artery cannulated SD female rats) was 1.5 ± 0.0 h. It also gave an AUC0-24 h [3, 4] of 0.0068 ± 0.0004 µM·h and a Cmax [3, 4] of 5.6 ± 0.5 nM.
